From ChEMBL document CHEMBL1150317, “Discovery of aryl aminoquinazoline pyridones as potent, selective, and orally efficacious inhibitors of receptor tyrosine kinase c-Kit” (J Med Chem, 2008)

Tests used:
[1] = biological target: Mitogen-activated protein kinase 10 (Homo sapiens) (UniProt P53779); test: Inhibition of JNK3 at 1 uM relative to control
[2] = biological target: Tyrosine-protein kinase ABL1 (Homo sapiens, UniProt P00519); test: Inhibition of Abl by TR-FRET assay
[3] = biological target: Calcium/calmodulin-dependent protein kinase type IV (Homo sapiens) (UniProt Q16566); test: Inhibition of CAMK4 at 1 uM relative to control
Sequence of Calcium/calmodulin-dependent protein kinase type IV (Homo sapiens) (Q16566 whole entry): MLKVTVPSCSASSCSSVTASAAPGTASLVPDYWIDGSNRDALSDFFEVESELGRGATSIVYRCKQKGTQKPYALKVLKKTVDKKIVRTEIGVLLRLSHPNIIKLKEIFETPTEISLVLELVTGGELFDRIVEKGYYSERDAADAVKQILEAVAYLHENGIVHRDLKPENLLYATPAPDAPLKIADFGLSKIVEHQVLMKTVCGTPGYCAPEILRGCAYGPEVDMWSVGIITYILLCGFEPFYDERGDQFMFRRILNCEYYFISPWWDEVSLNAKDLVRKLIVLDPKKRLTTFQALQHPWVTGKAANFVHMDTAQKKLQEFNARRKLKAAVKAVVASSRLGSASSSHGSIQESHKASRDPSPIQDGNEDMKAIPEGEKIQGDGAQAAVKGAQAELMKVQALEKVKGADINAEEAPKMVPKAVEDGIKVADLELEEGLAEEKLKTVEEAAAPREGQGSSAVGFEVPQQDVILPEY

[4] = biological target: Mitogen-activated protein kinase 9 (Homo sapiens) (UniProt P45984); test: Inhibition of JNK2 at 1 uM relative to control
[5] = biological target: Tyrosine-protein kinase Lck (Homo sapiens, UniProt P06239)
Sequence of Tyrosine-protein kinase Lck (P06239 whole entry): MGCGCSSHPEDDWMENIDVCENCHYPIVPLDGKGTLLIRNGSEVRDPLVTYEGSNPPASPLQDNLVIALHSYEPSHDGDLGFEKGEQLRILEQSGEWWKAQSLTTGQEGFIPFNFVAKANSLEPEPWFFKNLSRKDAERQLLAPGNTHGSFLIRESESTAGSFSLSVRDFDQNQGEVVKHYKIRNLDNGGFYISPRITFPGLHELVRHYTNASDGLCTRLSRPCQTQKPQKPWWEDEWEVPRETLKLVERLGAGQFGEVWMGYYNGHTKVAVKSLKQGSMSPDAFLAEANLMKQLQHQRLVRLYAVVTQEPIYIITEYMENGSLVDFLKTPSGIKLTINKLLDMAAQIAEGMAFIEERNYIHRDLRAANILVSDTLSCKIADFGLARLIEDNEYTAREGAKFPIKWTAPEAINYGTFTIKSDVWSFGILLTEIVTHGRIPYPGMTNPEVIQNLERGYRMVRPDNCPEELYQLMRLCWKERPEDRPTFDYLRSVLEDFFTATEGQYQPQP
Description: Inhibition of Lck by TR-FRET assay

[6] = Inhibition of p38 by TR-FRET assay
[7] = biological target: Mitogen-activated protein kinase 1 (Homo sapiens) (UniProt P28482); test: Inhibition of MAPK2 at 1 uM relative to control
Sequence of Mitogen-activated protein kinase 1 (Homo sapiens) (P28482 whole entry): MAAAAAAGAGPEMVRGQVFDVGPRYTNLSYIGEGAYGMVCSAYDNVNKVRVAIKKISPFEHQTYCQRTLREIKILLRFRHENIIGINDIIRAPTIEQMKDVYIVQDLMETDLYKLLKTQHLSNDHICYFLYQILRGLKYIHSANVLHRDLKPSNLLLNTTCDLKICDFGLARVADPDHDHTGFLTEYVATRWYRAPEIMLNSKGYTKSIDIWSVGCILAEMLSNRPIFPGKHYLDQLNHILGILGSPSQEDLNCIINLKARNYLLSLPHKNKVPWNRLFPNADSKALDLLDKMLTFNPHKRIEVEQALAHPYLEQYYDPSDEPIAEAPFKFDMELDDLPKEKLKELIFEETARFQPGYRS

[8] = biological target: Mitogen-activated protein kinase 8 (Homo sapiens) (UniProt P45983); test: Inhibition of JNK1 at 1 uM relative to control
Mus musculus = test: Effect on SCF-induced mast cell activation in po dosed C57BL/6 mouse assessed as decrease in histamine release in blood; format: functional, organism-based; conditions: C57BL/6, Blood
[9] = biological target: Serine/threonine-protein kinase Chk2 (Homo sapiens) (UniProt O96017); test: Inhibition of CHK2 at 1 uM relative to control
Sequence of Serine/threonine-protein kinase Chk2 (Homo sapiens) (O96017 whole entry): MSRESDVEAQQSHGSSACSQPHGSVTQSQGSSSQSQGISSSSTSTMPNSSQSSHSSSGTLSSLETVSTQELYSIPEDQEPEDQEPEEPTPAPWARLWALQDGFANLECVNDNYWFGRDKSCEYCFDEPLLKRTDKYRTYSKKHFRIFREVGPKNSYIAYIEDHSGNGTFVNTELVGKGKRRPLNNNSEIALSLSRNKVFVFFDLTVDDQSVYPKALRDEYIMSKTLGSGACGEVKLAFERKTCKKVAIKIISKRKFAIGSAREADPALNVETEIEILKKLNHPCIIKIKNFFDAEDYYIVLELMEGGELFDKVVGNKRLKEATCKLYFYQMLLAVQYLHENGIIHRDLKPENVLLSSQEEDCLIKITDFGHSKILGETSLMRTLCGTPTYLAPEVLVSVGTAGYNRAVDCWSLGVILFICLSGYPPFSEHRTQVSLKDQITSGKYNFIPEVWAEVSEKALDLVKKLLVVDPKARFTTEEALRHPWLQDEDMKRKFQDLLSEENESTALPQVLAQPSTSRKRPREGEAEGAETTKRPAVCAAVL

[10] = Oral bioavailability in Sprague-Dawley rat at 10 mg/kg; format: ADME, organism-based; conditions: in vivo
[11] = biological target: Tyrosine-protein kinase ZAP-70 (Homo sapiens) (UniProt P43403); test: Inhibition of ZAP70 at 1 uM relative to control
[12] = Inhibition of casein kinase 2 at 1 uM relative to control
[13] = biological target: Mitogen-activated protein kinase 13 (Homo sapiens) (UniProt O15264); test: Inhibition of p38delta at 1 uM relative to control
[14] = biological target: Vascular endothelial growth factor receptor 2 (Homo sapiens, UniProt P35968)
Sequence of Vascular endothelial growth factor receptor 2 (P35968 whole entry): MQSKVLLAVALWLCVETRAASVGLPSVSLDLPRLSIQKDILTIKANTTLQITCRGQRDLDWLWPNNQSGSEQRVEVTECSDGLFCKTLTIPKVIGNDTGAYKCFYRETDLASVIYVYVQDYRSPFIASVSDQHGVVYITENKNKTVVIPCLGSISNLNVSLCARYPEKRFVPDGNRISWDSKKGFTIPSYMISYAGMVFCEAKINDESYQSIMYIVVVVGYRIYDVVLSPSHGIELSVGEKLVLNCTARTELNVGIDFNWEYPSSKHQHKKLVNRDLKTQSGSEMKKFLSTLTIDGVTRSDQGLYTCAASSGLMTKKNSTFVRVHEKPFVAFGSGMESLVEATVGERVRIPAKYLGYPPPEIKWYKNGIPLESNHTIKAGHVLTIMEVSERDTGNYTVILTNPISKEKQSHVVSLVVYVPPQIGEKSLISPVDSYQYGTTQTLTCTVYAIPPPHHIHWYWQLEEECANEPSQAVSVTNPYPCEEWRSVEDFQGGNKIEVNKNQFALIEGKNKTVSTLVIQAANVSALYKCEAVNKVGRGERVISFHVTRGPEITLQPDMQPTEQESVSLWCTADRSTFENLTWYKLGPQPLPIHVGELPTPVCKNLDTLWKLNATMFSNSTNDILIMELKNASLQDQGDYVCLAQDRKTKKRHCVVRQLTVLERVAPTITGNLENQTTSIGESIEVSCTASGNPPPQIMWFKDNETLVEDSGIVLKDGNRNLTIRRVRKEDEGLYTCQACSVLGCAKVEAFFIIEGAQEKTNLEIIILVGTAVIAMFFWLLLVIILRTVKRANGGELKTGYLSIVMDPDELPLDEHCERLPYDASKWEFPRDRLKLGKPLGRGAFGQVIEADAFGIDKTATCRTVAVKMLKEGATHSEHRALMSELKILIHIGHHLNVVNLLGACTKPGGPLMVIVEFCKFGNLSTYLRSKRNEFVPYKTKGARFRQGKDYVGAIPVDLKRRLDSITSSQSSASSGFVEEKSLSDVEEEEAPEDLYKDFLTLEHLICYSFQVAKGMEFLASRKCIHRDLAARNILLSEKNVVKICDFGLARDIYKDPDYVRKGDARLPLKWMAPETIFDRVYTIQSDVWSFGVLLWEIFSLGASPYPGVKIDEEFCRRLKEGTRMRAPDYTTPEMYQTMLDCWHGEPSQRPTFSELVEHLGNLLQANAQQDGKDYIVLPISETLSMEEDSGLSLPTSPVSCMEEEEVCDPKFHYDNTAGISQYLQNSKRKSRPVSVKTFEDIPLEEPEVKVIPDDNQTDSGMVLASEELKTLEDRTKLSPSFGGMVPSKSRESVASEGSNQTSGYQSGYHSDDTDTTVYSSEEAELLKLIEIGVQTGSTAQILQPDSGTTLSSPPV
Description: Inhibition of KDR by TR-FRET assay

[15] = biological target: Ribosomal protein S6 kinase beta-1 (Homo sapiens) (UniProt P23443); test: Inhibition of P70S6 at 1 uM relative to control
[16] = biological target: Protein kinase C beta type (Homo sapiens) (UniProt P05771); test: Inhibition of PKCbeta at 1 uM relative to control
[17] = Inhibition of PKAalpha at 1 uM relative to control
[18] = biological target: 5'-AMP-activated protein kinase subunit beta-1 (Homo sapiens) (UniProt Q9Y478); test: Inhibition of AMPK at 1 uM relative to control
[19] = Inhibition of casein kinase 1 at 1 uM relative to control
[20] = biological target: Dual specificity mitogen-activated protein kinase kinase 1 (Homo sapiens) (UniProt Q02750); test: Inhibition of MEK1 at 1 uM relative to control
[21] = biological target: Serine/threonine-protein kinase N2 (Homo sapiens) (UniProt Q16513); test: Inhibition of PRK2 at 1 uM relative to control
[22] = biological target: Cyclin-dependent kinase 2 (Homo sapiens) (UniProt P24941); test: Inhibition of CDK2 at 1 uM relative to control
[23] = Inhibition of CAMK2 at 1 uM relative to control
[24] = biological target: Protein kinase C gamma type (Homo sapiens) (UniProt P05129); test: Inhibition of PKCgamma at 1 uM relative to control
[25] = biological target: Proto-oncogene tyrosine-protein kinase Src (Homo sapiens, UniProt P12931)
Description: Inhibition of Src by TR-FRET assay

[26] = biological target: Ribosomal protein S6 kinase alpha-5 (Homo sapiens) (UniProt O75582); test: Inhibition of MSK1 at 1 uM relative to control
[27] = Half life in Sprague-Dawley rat at 10 mg/kg, po; format: ADME, organism-based; parameters: dose 10 mg/kg, route oral; conditions: in vivo
[28] = biological target: Dual specificity mitogen-activated protein kinase kinase 7 (Homo sapiens) (UniProt O14733); test: Inhibition of MKK7 at 1 uM relative to control
Sequence of Dual specificity mitogen-activated protein kinase kinase 7 (Homo sapiens) (O14733 whole entry): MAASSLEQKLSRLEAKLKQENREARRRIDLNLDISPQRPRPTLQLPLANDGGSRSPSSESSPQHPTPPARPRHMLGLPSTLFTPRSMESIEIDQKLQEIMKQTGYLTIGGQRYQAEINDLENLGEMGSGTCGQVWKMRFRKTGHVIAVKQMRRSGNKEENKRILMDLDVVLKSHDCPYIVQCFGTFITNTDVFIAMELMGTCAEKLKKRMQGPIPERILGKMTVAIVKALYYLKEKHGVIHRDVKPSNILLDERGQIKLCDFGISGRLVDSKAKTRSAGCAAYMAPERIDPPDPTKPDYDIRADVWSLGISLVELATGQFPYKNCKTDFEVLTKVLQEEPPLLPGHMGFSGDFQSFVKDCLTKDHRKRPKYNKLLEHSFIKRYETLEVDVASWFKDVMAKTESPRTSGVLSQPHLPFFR

[29] = biological target: Mitogen-activated protein kinase 14 (Homo sapiens) (UniProt Q16539); test: Inhibition of p38alpha at 1 uM relative to control
[30] = Cmax in Sprague-Dawley rat at 10 mg/kg, po; format: ADME, organism-based; parameters: dose 10 mg/kg, route oral; conditions: in vivo
[31] = biological target: Dual specificity mitogen-activated protein kinase kinase 4 (Homo sapiens) (UniProt P45985); test: Inhibition of MKK4 at 1 uM relative to control
Plasma = test: Protein binding in po dosed C57BL/6 mouse plasma by ultracentrifugation; format: ADME, organism-based; conditions: in vivo
[32] = biological target: Cyclin-dependent kinase 1 (Homo sapiens) (UniProt P06493); test: Inhibition of CDK1 at 1 uM relative to control
[33] = biological target: Mitogen-activated protein kinase 1 (Homo sapiens) (UniProt P28482); test: Inhibition of MAPK1 at 1 uM relative to control
[34] = biological target: MAP kinase-activated protein kinase 5 (Homo sapiens) (UniProt Q8IW41); test: Inhibition of PRAK at 1 uM relative to control
Sequence of MAP kinase-activated protein kinase 5 (Homo sapiens) (Q8IW41 whole entry): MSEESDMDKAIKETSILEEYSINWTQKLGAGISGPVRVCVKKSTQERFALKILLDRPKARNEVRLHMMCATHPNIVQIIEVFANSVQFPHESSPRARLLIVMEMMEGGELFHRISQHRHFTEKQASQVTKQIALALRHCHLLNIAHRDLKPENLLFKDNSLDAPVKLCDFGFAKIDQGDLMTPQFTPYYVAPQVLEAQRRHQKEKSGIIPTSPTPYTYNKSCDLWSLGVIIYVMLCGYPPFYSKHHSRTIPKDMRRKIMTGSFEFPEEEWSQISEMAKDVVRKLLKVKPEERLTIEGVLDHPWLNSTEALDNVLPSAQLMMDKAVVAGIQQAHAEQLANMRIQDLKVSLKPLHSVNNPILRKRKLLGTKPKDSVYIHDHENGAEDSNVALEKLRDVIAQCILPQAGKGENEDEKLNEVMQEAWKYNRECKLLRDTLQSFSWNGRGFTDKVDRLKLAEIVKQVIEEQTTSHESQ

[35] = Clearance in Sprague-Dawley rat at 1 mg/kg, iv; format: ADME, organism-based; parameters: dose 1 mg/kg, route intravenous; conditions: in vivo
[36] = biological target: Rho-associated protein kinase 2 (Homo sapiens) (UniProt O75116); test: Inhibition of ROCK2 at 1 uM relative to control
[37] = biological target: Protein kinase C alpha type (Homo sapiens) (UniProt P17252); test: Inhibition of PKCalpha at 1 uM relative to control
[38] = biological target: Mitogen-activated protein kinase 11 (Homo sapiens) (UniProt Q15759); test: Inhibition of p38beta at 1 uM relative to control
[39] = Volume of distribution at steady state in Sprague-Dawley rat at 1 mg/kg, iv; format: ADME, organism-based; parameters: dose 1 mg/kg, route intravenous; conditions: in vivo, read-out: Vdss
[40] = biological target: Serine/threonine-protein kinase Chk1 (Homo sapiens) (UniProt O14757); test: Inhibition of CHK1 at 1 uM relative to control
[41] = biological target: Dual specificity mitogen-activated protein kinase kinase 6 (Homo sapiens) (UniProt P52564); test: Inhibition of MKK6 at 1 uM relative to control
[42] = biological target: MAP kinase-activated protein kinase 2 (Homo sapiens) (UniProt P49137); test: Inhibition of MAPKAPK2 at 1 uM relative to control
[43] = biological target: Mitogen-activated protein kinase 12 (Homo sapiens) (UniProt P53778); test: Inhibition of p38-gamma at 1 uM relative to control
[44] = biological target: Serine/threonine-protein kinase Sgk1 (Homo sapiens) (UniProt O00141); test: Inhibition of SGK1 at 1 uM relative to control
[45] = biological target: Platelet-derived growth factor receptor alpha (Homo sapiens, UniProt P16234)
Description: Inhibition of PDGFRalpha by TR-FRET assay

[46] = biological target: RAC-alpha serine/threonine-protein kinase (Homo sapiens) (UniProt P31749); test: Inhibition of PKBalpha at 1 uM relative to control
[47] = biological target: Glycogen synthase kinase-3 beta (Homo sapiens) (UniProt P49841); test: Inhibition of GSK3-beta at 1 uM relative to control
Sequence of Glycogen synthase kinase-3 beta (Homo sapiens) (P49841 whole entry, looked up): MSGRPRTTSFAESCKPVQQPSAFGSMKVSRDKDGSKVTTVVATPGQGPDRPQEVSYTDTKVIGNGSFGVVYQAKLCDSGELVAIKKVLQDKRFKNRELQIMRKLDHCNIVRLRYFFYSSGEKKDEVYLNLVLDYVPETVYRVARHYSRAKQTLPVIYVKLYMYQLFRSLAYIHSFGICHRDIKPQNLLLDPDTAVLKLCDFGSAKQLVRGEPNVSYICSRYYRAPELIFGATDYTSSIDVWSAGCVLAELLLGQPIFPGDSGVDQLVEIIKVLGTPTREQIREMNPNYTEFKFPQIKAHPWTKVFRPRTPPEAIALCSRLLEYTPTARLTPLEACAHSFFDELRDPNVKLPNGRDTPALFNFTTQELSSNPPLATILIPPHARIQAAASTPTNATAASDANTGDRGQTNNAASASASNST

[48] = AUC (0 to t) in Sprague-Dawley rat at 10 mg/kg, po; format: ADME, organism-based; parameters: dose 10 mg/kg, route oral; conditions: plasma

Sequence of Mitogen-activated protein kinase 10 (Homo sapiens) (P53779 whole entry): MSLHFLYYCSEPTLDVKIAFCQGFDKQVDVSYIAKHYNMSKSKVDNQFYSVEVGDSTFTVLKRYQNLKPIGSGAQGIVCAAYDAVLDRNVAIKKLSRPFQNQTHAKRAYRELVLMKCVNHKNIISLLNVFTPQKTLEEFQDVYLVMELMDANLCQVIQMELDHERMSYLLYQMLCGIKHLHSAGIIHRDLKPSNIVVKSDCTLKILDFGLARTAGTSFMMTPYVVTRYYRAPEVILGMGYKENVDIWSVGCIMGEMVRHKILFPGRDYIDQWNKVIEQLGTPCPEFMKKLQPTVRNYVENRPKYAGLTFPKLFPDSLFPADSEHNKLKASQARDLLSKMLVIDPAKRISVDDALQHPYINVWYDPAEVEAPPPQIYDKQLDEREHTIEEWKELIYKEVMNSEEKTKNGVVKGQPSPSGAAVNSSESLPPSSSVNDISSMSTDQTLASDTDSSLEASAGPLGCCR

Q: For `Cc1ccn(-c2cccc(C(F)(F)F)c2)c(=O)c1-c1ccc2nc(N)ncc2c1`, which inhibition [1] is on record?
A: > 50%

Q: And the IC50 [2]?
A: 1400 nM

Q: And the inhibition [3]?
A: > 50%

Q: And the inhibition [4]?
A: > 50%

Q: What about the IC50 [5] of the same molecule?
A: 1700 nM

Q: And the IC50 [6]?
A: 6100 nM

Q: What about the inhibition [7] of the same molecule?
A: > 50%

Q: What about the inhibition [8] of the same molecule?
A: > 50%

Q: And the EC50 (Mus musculus)?
A: 12.6 nM

Q: And the ED50 (Mus musculus; po)?
A: 4.7 mg/kg

Q: What about the inhibition [9] of the same molecule?
A: > 50%

Q: And the bioavailability [10]?
A: 25%

Q: What about the inhibition [11] of the same molecule?
A: > 50%

Q: And the inhibition [12]?
A: > 50%

Q: And the inhibition [13]?
A: > 50%

Q: What about the IC50 [14] of the same molecule?
A: > 5000 nM

Q: What about the inhibition [15] of the same molecule?
A: > 50%

Q: And the inhibition [16]?
A: > 50%

Q: What about the inhibition [17] of the same molecule?
A: > 50%

Q: What about the inhibition [18] of the same molecule?
A: > 50%

Q: What about the inhibition [19] of the same molecule?
A: > 50%

Q: And the inhibition [20]?
A: > 50%

Q: What about the inhibition [21] of the same molecule?
A: > 50%

Q: And the inhibition [22]?
A: 50%

Q: What about the inhibition [23] of the same molecule?
A: 50%

Q: What about the inhibition [24] of the same molecule?
A: > 50%

Q: What about the IC50 [25] of the same molecule?
A: 860 nM

Q: What about the inhibition [26] of the same molecule?
A: > 50%

Q: What about the half-life [27] of the same molecule?
A: 1.83 h

Q: And the inhibition [28]?
A: > 50%

Q: And the inhibition [29]?
A: > 50%

Q: And the Cmax [30]?
A: 253 ng/mL

Q: What about the inhibition [31] of the same molecule?
A: > 50%

Q: What about the Activity (Plasma) of the same molecule?
A: 87.85%

Q: And the inhibition [32]?
A: > 50%

Q: And the inhibition [33]?
A: > 50%

Q: What about the inhibition [34] of the same molecule?
A: > 50%

Q: And the clearance [35]?
A: 41 mL/min/kg

Q: And the inhibition [36]?
A: > 50%

Q: What about the inhibition [37] of the same molecule?
A: > 50%

Q: What about the inhibition [38] of the same molecule?
A: > 50%

Q: What about the Vd [39] of the same molecule?
A: 4.12 L/kg

Q: What about the inhibition [40] of the same molecule?
A: > 50%

Q: And the inhibition [41]?
A: > 50%

Q: What about the inhibition [42] of the same molecule?
A: > 50%

Q: What about the inhibition [43] of the same molecule?
A: > 50%

Q: What about the inhibition [44] of the same molecule?
A: > 50%

Q: What about the IC50 [45] of the same molecule?
A: 9 nM

Q: What about the inhibition [46] of the same molecule?
A: > 50%

Q: What about the inhibition [47] of the same molecule?
A: > 50%

Q: What about the AUC(0-t) [48] of the same molecule?
A: 1040 ng·h/mL
